Patent US20220169632A1, “METHODS AND MATERIALS FOR INCREASING OR MAINTAINING NICOTINAMIDE MONONUCLEOTIDE ADENYLYL TRANSFERASE-2 (NMNAT2) POLYPEPTIDE LEVELS” (University of Pittsburgh - Of the Commonwealth System of …, priority 2019, published 2022)

These compounds were tested on NMNAT2 (assay: NMNAT2-Hibit nano-luciferase activity in stably transfected U87MG cells, various concentrations, 24 hours). Conditions: U87MG cells stably transfected with NMNAT2-Hibit luc plasmid.
Format: cell-based
Protocol: Selected compounds were tested in vitro. U87MG cells were stably transfected with NMNAT2-Hibit luc plasmid. Cells were treated with a test compound at various concentrations for 24 hours. Cells were then collected and assayed for nano-luciferase activity.

Row | Structure (SMILES) | E: compound efficacy for NMNAT2 activation (concentration giving >25% increase in NMNAT2 luciferase activity)
1 | O=C(Cn1c2c(c3ccccc31)CC(C(=O)NCc1ccco1)CC2)NCc1cccc(F)c1 (centres unmarked) [BC20286] | ++ (“++” >25% increase in NMNAT2 luciferase activity at >1 μM ≤25 μM.)
2 | Cc1ccc(C)c(Cn2c3c(c4ccccc42)CC(C(=O)NCCc2ccccc2)CC3)c1 (centres unmarked) [BC20218] | + (“+” >25% increase in NMNAT2 luciferase activity at >25 μM.)
3 | COc1ccccc1CNC(=O)C1CCc2c(c3ccccc3n2CC(=O)NCc2ccco2)C1 (centres unmarked) [BC20240] | ++ (“++” >25% increase in NMNAT2 luciferase activity at >1 μM ≤25 μM.)
4 | O=C1c2cccc3c2c(cn3Cc2cccc(F)c2)CCN1Cc1ccncc1 [BC20277] | + (“+” >25% increase in NMNAT2 luciferase activity at >25 μM.)
5 | CCCCN(CC)Cc1ccc(CNC(=O)c2ccc3c(c2)c(C)c(C)n3Cc2ccccc2F)o1 [BC20198] | +++ (“+++” >25% increase in NMNAT2 luciferase activity at ≤1 μM.)
6 | Cc1c(C)n(Cc2ccccc2)c2ccc(C(=O)N3CCc4occc4C3)cc12 [BC20307] | + (“+” >25% increase in NMNAT2 luciferase activity at >25 μM.)
7 | Cc1cccc(CNC(=O)Cn2c3c(c4ccccc42)CC(C(=O)NCc2ccco2)CC3)c1 (centres unmarked) [BC20288] | ++ (“++” >25% increase in NMNAT2 luciferase activity at >1 μM ≤25 μM.)
8 | Cc1cccc(CNC(=O)C2CCCc3c2c2ccccc2n3Cc2cccc(F)c2)c1 (centres unmarked) [BC20373] | + (“+” >25% increase in NMNAT2 luciferase activity at >25 μM.)
9 | COc1cccc(CNC(=O)CCc2c(C(F)F)n(Cc3cc(C)ccc3C)c3ccccc23)c1 [BC20398] | ++ (“++” >25% increase in NMNAT2 luciferase activity at >1 μM ≤25 μM.)
10 | O=C(CCCc1cn(Cc2cccc(F)c2)c2ccccc12)NCc1ccccc1F [BC20138] | ++ (“++” >25% increase in NMNAT2 luciferase activity at >1 μM ≤25 μM.)
11 | CCCCN(CC)Cc1ccc(CNC(=O)CCc2c(C(F)F)n(Cc3cc(C)ccc3C)c3ccccc23)o1 [BC20406] | +++ (“+++” >25% increase in NMNAT2 luciferase activity at ≤1 μM.)
12 | O=C1CC(c2cn(Cc3cccc(F)c3)c3ccccc23)CCN1CCOc1ccc(F)cc1 (centres unmarked) [BC20340] | + (“+” >25% increase in NMNAT2 luciferase activity at >25 μM.)
13 | O=C(CCCc1cn(Cc2ccccc2F)c2ccccc12)NCc1ccncc1 [BC20133] | ++ (“++” >25% increase in NMNAT2 luciferase activity at >1 μM ≤25 μM.)
14 | Cc1c(C)n(Cc2ccccc2F)c2ccc(C(=O)NCCc3ccccc3)cc12 [BC20245] | ++ (“++” >25% increase in NMNAT2 luciferase activity at >1 μM ≤25 μM.)
15 | Cc1ccc(C)c(Cn2cc3c4c(cccc42)C(=O)N(Cc2cccc(F)c2)CC3)c1 [BC20270] | + (“+” >25% increase in NMNAT2 luciferase activity at >25 μM.)
16 | COc1ccccc1CNC(=O)C1CCCc2c1c1ccccc1n2Cc1cccc(F)c1 (centres unmarked) [BC20374] | + (“+” >25% increase in NMNAT2 luciferase activity at >25 μM.)
17 | Cc1ccc(Cn2cc(C3CCNC(=O)C3)c3ccccc32)cc1 (centres unmarked) [BC20192] | ++ (“++” >25% increase in NMNAT2 luciferase activity at >1 μM ≤25 μM.)
18 | Cc1ccccc1Cn1c(C)c(C)c2cc(C(=O)NCCc3ccccc3)ccc21 [BC20251] | ++ (“++” >25% increase in NMNAT2 luciferase activity at >1 μM ≤25 μM.)
19 | Cc1ccccc1CNC(=O)c1ccc2c(c1)c(C)c(C)n2Cc1cccc(F)c1 [BC20113] | ++ (“++” >25% increase in NMNAT2 luciferase activity at >1 μM ≤25 μM.)
20 | O=C(Cn1c2c(c3ccccc31)CC(C(=O)NCc1ccco1)CC2)NCc1cccnc1 (centres unmarked) [BC20292] | ++ (“++” >25% increase in NMNAT2 luciferase activity at >1 μM ≤25 μM.)
21 | O=C(NCCc1ccccc1)N1CCc2c(c3ccccc3n2Cc2ccncc2)C1 [BC20335] | + (“+” >25% increase in NMNAT2 luciferase activity at >25 μM.)
22 | COc1cccc(CNC(=O)[C@H]2C[C@@H]2c2c(C)n(Cc3cc(C)ccc3C)c3ccccc23)c1 (racemic) [BC20325] | + (“+” >25% increase in NMNAT2 luciferase activity at >25 μM.)

Row | Structure (SMILES) | E: compound efficacy for NMNAT2 activation (concentration giving >25% increase in NMNAT2 luciferase activity)
23 | Cc1cccc(CNC(=O)CCc2c(C(F)F)n(Cc3cc(C)ccc3C)c3ccccc23)c1 [BC20396] | ++ (“++” >25% increase in NMNAT2 luciferase activity at >1 μM ≤25 μM.)
24 | O=C(NCc1cccc(F)c1)C1CCCc2c1c1ccccc1n2Cc1cccc(F)c1 (centres unmarked) [BC20371] | ++ (“++” >25% increase in NMNAT2 luciferase activity at >1 μM ≤25 μM.)
25 | Cc1ccc(CNC(=O)C2CCCc3c2c2ccccc2n3Cc2cccc(F)c2)o1 (centres unmarked) [BC20369] | ++ (“++” >25% increase in NMNAT2 luciferase activity at >1 μM ≤25 μM.)
26 | CCOC(=O)Cn1cc(C2CCNC(=O)C2)c2ccccc21 (centres unmarked) [BC20235] | ++ (“++” >25% increase in NMNAT2 luciferase activity at >1 μM ≤25 μM.)
27 | Cc1ccccc1CN1CCC(c2cn(Cc3cccc(F)c3)c3ccccc23)CC1=O (centres unmarked) [BC20320] | + (“+” >25% increase in NMNAT2 luciferase activity at >25 μM.)
28 | COC(=O)c1ccc2c(c1)c(C)c(C)n2Cc1ccccc1C [BC20305] | + (“+” >25% increase in NMNAT2 luciferase activity at >25 μM.)
29 | COc1cccc(CNC(=O)C2CCc3c(c4ccccc4n3Cc3cccc(F)c3)C2)c1 (centres unmarked) [BC20226] | + (“+” >25% increase in NMNAT2 luciferase activity at >25 μM.)
30 | Cc1cccc(CNC(=O)CCCc2cn(Cc3ccccc3F)c3ccccc23)c1 [BC20126] | ++ (“++” >25% increase in NMNAT2 luciferase activity at >1 μM ≤25 μM.)
31 | COc1ccc(CNC(=O)N2CCc3c(c4ccccc4n3Cc3cccc(F)c3)C2)cc1 [BC20332] | ++ (“++” >25% increase in NMNAT2 luciferase activity at >1 μM ≤25 μM.)
32 | Cc1ccccc1Cn1cc(CCCC(=O)Nc2cccc(C)c2C)c2ccccc21 [BC20161] | ++ (“++” >25% increase in NMNAT2 luciferase activity at >1 μM ≤25 μM.)
33 | Cc1ccc(C)c(Cn2c(C(F)F)c(CCC(=O)NC(C)Cc3ccco3)c3ccccc32)c1 (centres unmarked) [BC20401] | ++ (“++” >25% increase in NMNAT2 luciferase activity at >1 μM ≤25 μM.)
34 | COc1cccc(CNC(=O)c2ccc3c(c2)c(C)c(C)n3Cc2ccccc2F)c1 [BC20196] | + (“+” >25% increase in NMNAT2 luciferase activity at >25 μM.)
35 | Cc1cccc(CNC(=O)c2ccc3c(c2)c(C)c(C)n3Cc2ccccc2C)c1 [BC20204] | ++ (“++” >25% increase in NMNAT2 luciferase activity at >1 μM ≤25 μM.)
36 | O=C(CCCc1cn(Cc2cccc(F)c2)c2ccccc12)NCc1ccco1 [BC20135] | ++ (“++” >25% increase in NMNAT2 luciferase activity at >1 μM ≤25 μM.)
37 | COc1ccccc1CNC(=O)[C@H]1C[C@@H]1c1cn(Cc2cc(C)ccc2C)c2ccccc12 (racemic) [BC20349] | + (“+” >25% increase in NMNAT2 luciferase activity at >25 μM.)
38 | Cc1ccc(Cn2cc(C3=CC(=O)NCC3)c3ccccc32)cc1 [BC20191] | ++ (“++” >25% increase in NMNAT2 luciferase activity at >1 μM ≤25 μM.)
39 | Cc1ccc(Cn2c3c(c4ccccc42)C(C(=O)NCC2CCCO2)CCC3)cc1 (centres unmarked) [BC20384] | + (“+” >25% increase in NMNAT2 luciferase activity at >25 μM.)
40 | Cc1ccc(C)c(Cn2cc([C@H]3C[C@@H]3C(=O)N3CCc4occc4C3)c3ccccc32)c1 (racemic) [BC20359] | + (“+” >25% increase in NMNAT2 luciferase activity at >25 μM.)
41 | Cc1c(C)n(Cc2cccc(F)c2)c2ccc(C(=O)NCc3ccncc3)cc12 [BC20119] | +++ (“+++” >25% increase in NMNAT2 luciferase activity at ≤1 μM.)
42 | O=C(Cn1c2c(c3ccccc31)CC(C(=O)NCC1CCCO1)CC2)NCc1ccco1 (centres unmarked) [BC20237] | ++ (“++” >25% increase in NMNAT2 luciferase activity at >1 μM ≤25 μM.)
43 | Cc1ccc(Cn2c3c(c4ccccc42)C(C(=O)NCc2ccco2)CCC3)cc1 (centres unmarked) [BC20383] | + (“+” >25% increase in NMNAT2 luciferase activity at >25 μM.)
44 | Cc1cccc(NC(=O)N2CCc3c(c4ccccc4n3Cc3cccc(F)c3)C2)c1C [BC20312] | + (“+” >25% increase in NMNAT2 luciferase activity at >25 μM.)
